Laboratory results: the supplement of paper PMC10307832

How the values were obtained:
[1] = compound: CC(C)CCN1c2nc(Nc3cc(F)c(O)c(F)c3)ncc2N(C)C(=O)C1C [BI-D1870] + Cc1nc(Nc2ncc(C(=O)Nc3c(C)cccc3Cl)s2)cc(N2CCN(CCO)CC2)n1 [Dasatinib] (partner 0.075 µM); assay: relative viability (nuclei count vs DMSO), 5 days (fraction); higher = more cells survive
Procedure, shortened: (§1)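 Nuclei were stained with Hoechst during a one-step fixation (final 0.05% Triton X-100, 1% formaldehyde, 1 ug/ml Hoechst) carried out 5 days after dosing, then counted on 4× images. The cells, lung cancer lines in 1536-well plates, had been dosed by pin tool the day after seeding with one drug alone or a fixed anchor-drug dose plus five library-drug doses (not always all listed) in √10 steps. Relative viability is the nuclei count in treated wells divided by that in vehicle wells, and each value is the median of duplicate plates.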

[2] = compound: CC(C)CCN1c2nc(Nc3cc(F)c(O)c(F)c3)ncc2N(C)C(=O)C1C [BI-D1870] + CCNC(=O)c1noc(-c2cc(C(C)C)c(O)cc2O)c1-c1ccc(CN2CCOCC2)cc1 [Luminespib] (partner 0.01 µM); assay: as above
Procedure, shortened: as §1

Cell Line	relative viability ([1]; first compound 0.04 µM)	relative viability ([1]; first compound 0.1265 µM)	relative viability ([1]; first compound 0.4 µM)	relative viability ([1]; first compound 1.265 µM)	relative viability ([1]; first compound 4 µM)	relative viability ([2]; first compound 0.04 µM)	relative viability ([2]; first compound 0.1265 µM)	relative viability ([2]; first compound 0.4 µM)	relative viability ([2]; first compound 1.265 µM)	relative viability ([2]; first compound 4 µM)
COR-L23	0.58	0.414	0.504	0.565	0.434	0.812	0.524	0.587	0.875	0.504
COR-L 105	0.303	0.294	0.485	0.322	0.384	0.824	0.828	0.631	0.854	0.666
LK-2	0.442	0.359	0.239	0.241	0.281	0.204	0.19	0.185	0.169	0.212
201T	0.59	0.569	0.571	0.548	0.544	1.1	1.01	1.06	1.07	1.12
HCC-44						1.46	1	0.986	1.26	0.695
NCI-H596	0.633	0.475	0.597	0.684	0.564	1.16	0.985	1.27	0.786	0.915
H3255	0.436	0.458	0.367	0.433	0.48	0.929	0.887	0.884	1.09	0.961
NCI-H647	0.184	0.113	0.243	0.23	0.208	0.158	0.0954	0.206	0.31	0.107
NCI-H2023	0.619	0.378	0.577	0.617	0.426	1.03	0.48	0.685	0.795	0.385
NCI-H23	0.923	0.741	0.692	0.588	0.579	0.237	0.222	0.232	0.217	0.24
NCI-H1944	0.216	0.214	0.215	0.253	0.238	0.841	0.691	0.669	0.879	0.763
NCI-H1793	0.423	0.334	0.396	0.39	0.309	0.176	0.16	0.194	0.146	0.167
NCI-H520	0.207	0.189	0.235	0.198	0.186	0.207	0.209	0.243	0.22	0.194
NCI-H460	0.594	0.377	0.528	0.507	0.242	0.0324	0.0316	0.0261	0.0295	0.0315
EKVX	0.719	0.456	0.522	0.554	0.454	0.836	0.819	0.879	0.993	0.792
NCI-H358	0.177	0.172	0.195	0.257	0.288	0.441	0.158	0.256	0.313	0.319
EPLC-272H	0.414	0.38	0.338	0.364	0.32	0.559	0.13	0.207	0.245	0.272

Cell Line	relative viability ([1]; first compound 0.04 µM)	relative viability ([1]; first compound 0.1265 µM)	relative viability ([1]; first compound 0.4 µM)	relative viability ([1]; first compound 1.265 µM)	relative viability ([1]; first compound 4 µM)	relative viability ([2]; first compound 0.04 µM)	relative viability ([2]; first compound 0.1265 µM)	relative viability ([2]; first compound 0.4 µM)	relative viability ([2]; first compound 1.265 µM)	relative viability ([2]; first compound 4 µM)
NCI-H1563	0.456	0.434	0.425	0.506	0.477	0.512	0.481	0.502	0.521	0.526
NCI-H1395	0.471	0.432	0.428	0.359	0.384	0.623	0.532	0.675	0.504	0.521
NCI-H2126	0.575	0.6	0.55	0.548	0.483	0.899	0.767	0.866	0.915	0.769
LXF-289	0.254	0.239	0.216	0.223	0.244	0.809	0.607	0.674	0.74	0.533
NCI-H2009	0.325	0.212	0.304	0.248	0.141	1.1	1.01	0.93	0.999	0.59
NCI-H522	0.91	0.874	0.777	0.99	0.926	0.929	1.05	0.989	1.24	1.29
NCI-H2405	0.253	0.19	0.218	0.215	0.219	0.711	0.577	0.68	0.883	0.54
NCI-H1755	0.511	0.408	0.407	0.567	0.442	0.577	0.542	0.413	0.771	0.316
HCC-78	0.362	0.382	0.422	0.442	0.33					
LOU-NH91	0.582	0.527	0.516	0.595	0.458	0.366	0.33	0.315	0.351	0.264
NCI-H3122	0.845	0.744	0.834	0.955	0.92	0.0791	0.0919	0.0942	0.11	0.124
HCC-827	0.383	0.373	0.321	0.412	0.26	0.629	0.672	0.681	0.736	0.714
SK-LU-1	0.18	0.165	0.132	0.229	0.153	0.178	0.17	0.207	0.224	0.179
NCI-H1975	0.497	0.314	0.359	0.399	0.295	0.27	0.101	0.308	0.257	0.208
NCI-H1651	0.405	0.293	0.345	0.297	0.237	0.902	0.743	0.764	1.03	0.843
NCI-H441	0.763	0.544	0.575	0.651	0.671	0.474	0.267	0.359	0.394	0.412
LCLC-103H	0.537	0.38	0.454	0.469	0.469	0.989	0.753	0.888	1.07	0.934
